Laboratory results from patent US20050043315A1, “Aminopyrimidine compounds, processes for their preparation and pharmaceutical compositions containing them” (priority 2002, published 2005).

SMILES | melting point [°C]
CC(C)n1nc(-c2cnc(NC(=O)C3CC3)nc2-c2ccccc2)ccc1=O [Example 167, N-[5-(1-isopropyl-6-oxo-1,6-dihydro-3-pyridazinyl)-4-phenyl-2-pyrimidinyl]cyclopropanecarboxamide] | 143 to 147
COC(=O)Nc1ncc(-c2ccc(=O)n(C(C)C)n2)c(-c2ccccc2)n1 [Example 168, Methyl 5-(1-isopropyl-6-oxo-1,6-dihydro-3-pyridazinyl)-4-phenyl-2-pyrimidinylcarbamate] | 197 to 200
CC(C)n1nc(-c2cnc(NC(=O)c3ccccc3)nc2-c2ccccc2)ccc1=O [Example 169, N-[5-(1-isopropyl-6-oxo-1,6-dihydro-3-pyridazinyl)-4-phenyl-2-pyrimidinyl]benzamide] | 116 to 120
CC(C)n1nc(-c2cnc(NC(=O)c3ccc(Cl)cc3)nc2-c2ccccc2)ccc1=O [Example 171, 4-Chloro-N-[5-(1-isopropyl-6-oxo-1,6-dihydro-3-pyridazinyl)-4-phenyl-2-pyrimidinyl]benzamide] | 100
COc1ccc(C(=O)Nc2ncc(-c3ccc(=O)n(C(C)C)n3)c(-c3ccccc3)n2)cc1 [Example 172, N-[5-(1-isopropyl-6-oxo-1,6-dihydro-3-pyridazinyl)-4-phenyl-2-pyrimidinyl]-4-methoxybenzamide] | 171 to 174
Cc1ccc(C(=O)Nc2ncc(-c3ccc(=O)n(C(C)C)n3)c(-c3ccccc3)n2)cc1 [Example 173, N-[5-(1-isopropyl-6-oxo-1,6-dihydro-3-pyridazinyl)-4-phenyl-2-pyrimidinyl]-4-methylbenzamide] | 116
CC(C)n1nc(-c2cnc(NC(=O)c3ccc(C(F)(F)F)cc3)nc2-c2ccccc2)ccc1=O [Example 174, N-[5-(1-isopropyl-6-oxo-1,6-dihydro-3-pyridazinyl)-4-phenyl-2-pyrimidinyl]-4-(trifluoromethyl)benzamide] | 160 to 163
CC(C)n1nc(-c2cnc(NC(=O)c3cccnc3)nc2-c2ccccc2)ccc1=O [Example 175, N-[5-(1-isopropyl-6-oxo-1,6-dihydro-3-pyridazinyl)-4-phenyl-2-pyrimidinyl)nicotinamide] | 163 to 167
CC(C)n1nc(-c2cnc(NC(=O)C(C)(C)C)nc2-c2ccccc2)ccc1=O [Example 176, N-[5-(1-isopropyl-6-oxo-1,6-dihydro-3-pyridazinyl)-4-phenyl-2-pyrimidinyl]-2,2-dimethylpropanamide] | 138 to 141
CC(C)n1nc(-c2cnc(NC(=O)OCC(Cl)(Cl)Cl)nc2-c2ccccc2)ccc1=O [Example 177, 2,2,2-trichloroethyl 5-(1-isopropyl-6-oxo-1,6-dihydro-3-pyridazinyl)-4-phenyl-2-pyrimidinylcarbamate] | 158 to 162
CC(C)n1nc(-c2cnc(N(C(=O)c3ccccc3)C(=O)c3ccccc3)nc2-c2ccccc2)ccc1=O [Example 178, N-benzoyl-N-[5-(1-isopropyl-6-oxo-1,6-dihydro-3-pyridazinyl)-4-phenyl-2-pyrimidinyl]benzamide] | 121 to 125
CC(C)n1nc(-c2cnc(N(C(=O)c3ccc(F)cc3)C(=O)c3ccc(F)cc3)nc2-c2ccccc2)ccc1=O [Example 179, 4-Fluoro-N-(4-fluorobenzoyl)-N-[5-(1-isopropyl-6-oxo-1,6-dihydro-3-pyridazinyl)-4-phenyl-2-pyrimidinyl]benzamide] | 148 to 151
CC(C)n1nc(-c2cnc(N(C(=O)c3ccc(Cl)cc3)C(=O)c3ccc(Cl)cc3)nc2-c2ccccc2)ccc1=O [Example 180, 4-Chloro-N-(4-chlorobenzoyl)-N-[5-(1-isopropyl-6-oxo-1,6-dihydro-3-pyridazinyl)-4-phenyl-2-pyrimidinyl]benzamide] | 110
CC(C)n1nc(-c2cnc(N(C(=O)c3ccc(C(F)(F)F)cc3)C(=O)c3ccc(C(F)(F)F)cc3)nc2-c2ccccc2)ccc1=O [Example 183, N-[5-(1-isopropyl-6-oxo-1,6-dihydro-3-pyridazinyl)-4-phenyl-2-pyrimidinyl]-4-(trifluoromethyl)-N-[4-(trifluoromethyl)benzoyl]benzamide] | 159
CCOc1ccc(-c2nc(N)ncc2-c2ccc(=O)n(C(C)C)n2)cc1 [Example 188, 6-[2-amino-4-(4-ethoxyphenyl)-5-pyrimidinyl]-2-isopropyl-3(2H)-pyridazinone] | 204
CCOc1ccccc1-c1nc(N)ncc1-c1ccc(=O)n(C(C)C)n1 [Example 189, 6-[2-Amino-4-(2-ethoxyphenyl)-5-pyrimidinyl]-2-isopropyl-3(2H)-pyridazinone] | 185
CCOc1cccc(-c2nc(N)ncc2-c2ccc(=O)n(C(C)C)n2)c1 [Example 190, 6-[2-Amino-4-(3-ethoxyphenyl)-5-pyrimidinyl]-2-isopropyl-3(2H)-pyridazinone] | 142
CCCOc1ccc(-c2nc(N)ncc2-c2ccc(=O)n(C(C)C)n2)cc1 [Example 191, 6-[2-Amino-4-(4-propoxyphenyl)-5-pyrimidinyl]-2-isopropyl-3(2H)-pyridazinone] | 175
CCCOc1ccccc1-c1nc(N)ncc1-c1ccc(=O)n(C(C)C)n1 [Example 192, 6-[2-Amino-4-(2-propoxyphenyl)-5-pyrimidinyl]-2-isopropyl-3(2H)-pyridazinone] | 145
CCCOc1cccc(-c2nc(N)ncc2-c2ccc(=O)n(C(C)C)n2)c1 [Example 193, 6-[2-Amino-4-(3-propoxyphenyl)-5-pyrimidinyl]-2-isopropyl-3(2H)-pyridazinone] | 122
CC(C)Oc1ccc(-c2nc(N)ncc2-c2ccc(=O)n(C(C)C)n2)cc1 [Example 194, 6-[2-Amino-4-(4-isopropoxyphenyl)-5-pyrimidinyl]-2-isopropyl-3(2H)-pyridazinone] | 164
CC(C)Oc1cccc(-c2nc(N)ncc2-c2ccc(=O)n(C(C)C)n2)c1 [Example 196, 6-[2-Amino-4-(3-isopropoxyphenyl)-5-pyrimidinyl]-2-isopropyl-3(2H)-pyridazinone] | 143
CCCCOc1ccc(-c2nc(N)ncc2-c2ccc(=O)n(C(C)C)n2)cc1 [Example 197, 6-[2-Amino-4-(4-butoxyphenyl)-5-pyrimidinyl]-2-isopropyl-3(2H)-pyridazinone] | 143
CCCCOc1ccccc1-c1nc(N)ncc1-c1ccc(=O)n(C(C)C)n1 [Example 198, 6-[2-Amino-4-(2-butoxyphenyl)-5-pyrimidinyl]-2-isopropyl-3(2H)-pyridazinone] | 149
CCCCOc1cccc(-c2nc(N)ncc2-c2ccc(=O)n(C(C)C)n2)c1 [Example 199, 6-[2-Amino-4-(3-butoxyphenyl)-5-pyrimidinyl]-2-isopropyl-3(2H)-pyridazinone] | 130
CC(C)COc1ccc(-c2nc(N)ncc2-c2ccc(=O)n(C(C)C)n2)cc1 [Example 200, 6-[2-Amino-4-(4-isobutoxyphenyl)-5-pyrimidinyl]-2-isopropyl-3(2H)-pyridazinone] | 166
CC(C)COc1ccccc1-c1nc(N)ncc1-c1ccc(=O)n(C(C)C)n1 [Example 201, 6-[2-Amino-4-(2-isobutoxyphenyl)-5-pyrimidinyl]-2-isopropyl-3(2H)-pyridazinone] | 189
